This is an account of results in ChEMBL document CHEMBL1148522 (J Med Chem, 2006).

In the assay the target is Proto-oncogene tyrosine-protein kinase Src (Homo sapiens, UniProt P12931). The experiment in a line: Inhibition of SRC using polyE4Y as substrate.
Chain of Proto-oncogene tyrosine-protein kinase Src (P12931 2-536 limits assumed): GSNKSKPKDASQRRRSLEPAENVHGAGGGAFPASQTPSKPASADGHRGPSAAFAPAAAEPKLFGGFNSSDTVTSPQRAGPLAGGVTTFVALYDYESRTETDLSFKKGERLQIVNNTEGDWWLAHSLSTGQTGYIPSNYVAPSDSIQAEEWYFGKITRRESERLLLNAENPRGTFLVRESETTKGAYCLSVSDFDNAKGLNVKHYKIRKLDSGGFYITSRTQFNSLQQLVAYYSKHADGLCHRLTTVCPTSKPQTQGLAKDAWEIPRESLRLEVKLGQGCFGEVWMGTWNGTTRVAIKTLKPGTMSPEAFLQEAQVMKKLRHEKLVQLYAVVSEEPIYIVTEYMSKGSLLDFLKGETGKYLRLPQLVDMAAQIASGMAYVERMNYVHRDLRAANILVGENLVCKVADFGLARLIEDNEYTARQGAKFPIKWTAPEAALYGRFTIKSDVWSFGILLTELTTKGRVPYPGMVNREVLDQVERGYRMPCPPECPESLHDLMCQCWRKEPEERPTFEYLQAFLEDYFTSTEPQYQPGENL

A word on the IC50: it is the concentration that inhibits the measured activity by half. A low value points to greater potency. As for `CC[C@H](C)[C@H](NC(=O)[C@H](CS)NC(C)=O)C(=O)N[C@@H](Cc1ccc(O)cc1)C(=O)N[C@@H](CCCCN)C(=O)N[C@@H](Cc1ccc(O)cc1)C(=O)N[C@@H](Cc1ccc(N)cc1)C(=O)O`, the IC50 was above 700 µM.
With `CC[C@H](C)[C@H](NC(=O)[C@H](CS)NC(C)=O)C(=O)N[C@@H](Cc1ccc(O)cc1)C(=O)N[C@@H](CCCCN)C(=O)N[C@@H](Cc1ccc(NS(C)(=O)=O)cc1)C(=O)N[C@@H](Cc1ccc(O)cc1)C(=O)O` the figure was above 700 µM.
